{"source": "ChEMBL document CHEMBL1201862", "about": "“PubChem BioAssay data set” (2004)", "key": {"[1]": {"molecular_target": "Nonstructural protein 1 (Influenza A virus, UniProt Q194T2)", "assay_type": "functional, Influenza A virus (A/California/07/2009(H1N1))"}, "[2]": {"molecular_target": "Ephrin type-A receptor 4 (Mus musculus, UniProt Q03137)", "experiment": "inhibitors of EphA4 binding to KYL peptide, primary screen, biochemical, colorimetric, mouse EphA4 (AID 689)", "assay_type": "functional"}, "[3]": {"molecular_target": "T1, Aminopeptidase N (Plasmodium falciparum FcB1/Columbia, UniProt O96935)", "T1 sequence (O96935 whole entry)": "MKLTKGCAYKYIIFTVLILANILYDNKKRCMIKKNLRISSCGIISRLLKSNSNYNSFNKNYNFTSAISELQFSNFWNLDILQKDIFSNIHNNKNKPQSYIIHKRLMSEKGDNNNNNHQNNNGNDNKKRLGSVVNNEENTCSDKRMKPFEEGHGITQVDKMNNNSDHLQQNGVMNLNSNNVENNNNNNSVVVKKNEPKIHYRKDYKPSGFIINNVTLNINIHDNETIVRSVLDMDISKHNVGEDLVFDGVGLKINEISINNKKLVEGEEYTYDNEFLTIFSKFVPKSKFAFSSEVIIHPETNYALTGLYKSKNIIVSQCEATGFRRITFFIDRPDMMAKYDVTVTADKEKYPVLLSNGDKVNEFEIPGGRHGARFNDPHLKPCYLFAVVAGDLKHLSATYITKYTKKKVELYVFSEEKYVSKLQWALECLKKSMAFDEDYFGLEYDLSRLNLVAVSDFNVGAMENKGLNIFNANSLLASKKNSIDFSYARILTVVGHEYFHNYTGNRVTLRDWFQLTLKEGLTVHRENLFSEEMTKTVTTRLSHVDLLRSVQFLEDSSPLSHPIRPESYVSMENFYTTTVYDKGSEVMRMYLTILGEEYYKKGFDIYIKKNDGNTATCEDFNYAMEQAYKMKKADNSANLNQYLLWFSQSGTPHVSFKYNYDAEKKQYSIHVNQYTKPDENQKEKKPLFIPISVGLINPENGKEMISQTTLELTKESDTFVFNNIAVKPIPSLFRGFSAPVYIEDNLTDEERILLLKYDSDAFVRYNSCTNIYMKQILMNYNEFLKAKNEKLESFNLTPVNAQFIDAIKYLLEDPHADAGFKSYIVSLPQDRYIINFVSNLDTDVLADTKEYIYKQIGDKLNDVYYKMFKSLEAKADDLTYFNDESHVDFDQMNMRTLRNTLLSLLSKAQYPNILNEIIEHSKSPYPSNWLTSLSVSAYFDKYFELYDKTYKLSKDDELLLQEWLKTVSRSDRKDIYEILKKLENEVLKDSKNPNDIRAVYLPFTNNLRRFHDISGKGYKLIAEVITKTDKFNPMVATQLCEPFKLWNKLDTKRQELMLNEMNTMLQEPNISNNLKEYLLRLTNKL", "experiment": "P. falciparum M1AAP inhibitors, biochemical, fluorogenic H-Leu-NHMec substrate, 1536-well (AID 1445)", "design": "species or system Plasmodium falciparum 3D7, 3D7"}, "[4]": {"experiment": "A375 melanoma cell cytotoxicity, dose response, counter-screen for MITF inhibitor project, CellTiter-Glo luminescence, dry powder, set 7 (AID 624490)", "assay_type": "functional, cell-based", "settings": "A-375"}, "[5]": {"experiment": "A375 melanoma cell viability loss, dose response, counter-screen for MITF modulator project, CellTiter-Glo luminescence, dry powder, set 9 (AID 651591)", "assay_type": "functional, cell-based", "settings": "A-375"}, "[6]": {"molecular_target": "T2, Orexin/Hypocretin receptor type 1 (Homo sapiens, UniProt O43613)", "T2 sequence (O43613 whole entry)": "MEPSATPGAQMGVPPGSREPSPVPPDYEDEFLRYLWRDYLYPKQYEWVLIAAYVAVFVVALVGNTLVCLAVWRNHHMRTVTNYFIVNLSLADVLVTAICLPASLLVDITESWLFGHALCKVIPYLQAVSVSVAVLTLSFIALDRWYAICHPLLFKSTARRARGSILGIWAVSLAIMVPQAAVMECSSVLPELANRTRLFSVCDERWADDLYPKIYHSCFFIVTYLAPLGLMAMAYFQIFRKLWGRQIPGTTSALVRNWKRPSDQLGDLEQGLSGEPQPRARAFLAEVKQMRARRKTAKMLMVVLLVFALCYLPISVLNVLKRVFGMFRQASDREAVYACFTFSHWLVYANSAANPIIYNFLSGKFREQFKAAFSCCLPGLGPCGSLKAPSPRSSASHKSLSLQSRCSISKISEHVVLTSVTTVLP", "experiment": "Homogeneous Time Resolved Fluorescence (HTRF)-based cell-based high throughput dose response assay for antagonists of the orexin 1 receptor (OX1R; HCRTR1). [Related pubchem assays (depositor defined):AID434989, AID435008, AID463079, AID485270, AID492963, AID492964, AID492965, AID493232, AID504717, AID504718]", "assay_type": "functional"}, "[7]": {"molecular_target": "Casein kinase II subunit alpha (Homo sapiens, UniProt P68400)", "sequence (P68400 whole entry)": "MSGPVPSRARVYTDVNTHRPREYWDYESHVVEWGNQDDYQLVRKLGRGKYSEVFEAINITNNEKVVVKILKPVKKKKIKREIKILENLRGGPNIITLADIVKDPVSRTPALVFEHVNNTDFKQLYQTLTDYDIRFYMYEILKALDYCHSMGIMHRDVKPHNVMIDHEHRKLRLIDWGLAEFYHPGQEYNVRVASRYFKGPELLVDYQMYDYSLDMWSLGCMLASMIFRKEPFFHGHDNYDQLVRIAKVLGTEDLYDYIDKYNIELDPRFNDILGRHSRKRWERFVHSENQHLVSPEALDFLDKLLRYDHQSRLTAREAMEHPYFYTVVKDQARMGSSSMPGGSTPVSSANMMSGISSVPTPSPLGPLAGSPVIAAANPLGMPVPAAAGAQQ", "assay_type": "functional"}, "[8]": {"molecular_target": "Ephrin type-A receptor 2 (Homo sapiens, UniProt P29317)", "assay_type": "functional"}, "[9]": {"molecular_target": "Fibroblast growth factor receptor 3 (Homo sapiens, UniProt P22607)", "assay_type": "functional"}, "[10]": {"molecular_target": "Tyrosine-protein kinase Lck (Homo sapiens, UniProt P06239)", "assay_type": "functional"}, "[11]": {"molecular_target": "Serine/threonine-protein kinase BRSK1 (Homo sapiens, UniProt Q8TDC3)", "sequence (Q8TDC3 whole entry)": "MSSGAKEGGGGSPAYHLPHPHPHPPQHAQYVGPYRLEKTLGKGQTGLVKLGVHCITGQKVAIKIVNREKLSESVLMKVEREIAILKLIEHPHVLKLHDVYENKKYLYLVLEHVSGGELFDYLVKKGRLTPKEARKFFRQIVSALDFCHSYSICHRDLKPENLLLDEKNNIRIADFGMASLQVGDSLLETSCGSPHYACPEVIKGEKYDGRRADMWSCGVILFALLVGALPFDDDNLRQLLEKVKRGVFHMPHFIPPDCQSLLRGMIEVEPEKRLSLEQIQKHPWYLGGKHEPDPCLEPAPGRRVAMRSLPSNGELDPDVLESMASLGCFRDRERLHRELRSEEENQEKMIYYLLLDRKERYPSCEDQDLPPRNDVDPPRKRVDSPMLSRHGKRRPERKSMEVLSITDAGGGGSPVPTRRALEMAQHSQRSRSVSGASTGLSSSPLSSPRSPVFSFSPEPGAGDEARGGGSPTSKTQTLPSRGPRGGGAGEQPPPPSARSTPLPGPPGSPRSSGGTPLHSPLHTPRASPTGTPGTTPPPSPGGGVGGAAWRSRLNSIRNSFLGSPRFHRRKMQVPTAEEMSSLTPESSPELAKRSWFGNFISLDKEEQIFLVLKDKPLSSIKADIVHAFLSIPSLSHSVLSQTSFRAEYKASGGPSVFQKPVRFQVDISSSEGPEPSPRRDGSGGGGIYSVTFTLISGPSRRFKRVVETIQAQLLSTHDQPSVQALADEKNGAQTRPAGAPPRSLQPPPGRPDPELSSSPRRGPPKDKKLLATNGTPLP", "assay_type": "functional"}, "[12]": {"molecular_target": "ALK tyrosine kinase receptor (Homo sapiens, UniProt Q9UM73)", "sequence (Q9UM73 whole entry)": "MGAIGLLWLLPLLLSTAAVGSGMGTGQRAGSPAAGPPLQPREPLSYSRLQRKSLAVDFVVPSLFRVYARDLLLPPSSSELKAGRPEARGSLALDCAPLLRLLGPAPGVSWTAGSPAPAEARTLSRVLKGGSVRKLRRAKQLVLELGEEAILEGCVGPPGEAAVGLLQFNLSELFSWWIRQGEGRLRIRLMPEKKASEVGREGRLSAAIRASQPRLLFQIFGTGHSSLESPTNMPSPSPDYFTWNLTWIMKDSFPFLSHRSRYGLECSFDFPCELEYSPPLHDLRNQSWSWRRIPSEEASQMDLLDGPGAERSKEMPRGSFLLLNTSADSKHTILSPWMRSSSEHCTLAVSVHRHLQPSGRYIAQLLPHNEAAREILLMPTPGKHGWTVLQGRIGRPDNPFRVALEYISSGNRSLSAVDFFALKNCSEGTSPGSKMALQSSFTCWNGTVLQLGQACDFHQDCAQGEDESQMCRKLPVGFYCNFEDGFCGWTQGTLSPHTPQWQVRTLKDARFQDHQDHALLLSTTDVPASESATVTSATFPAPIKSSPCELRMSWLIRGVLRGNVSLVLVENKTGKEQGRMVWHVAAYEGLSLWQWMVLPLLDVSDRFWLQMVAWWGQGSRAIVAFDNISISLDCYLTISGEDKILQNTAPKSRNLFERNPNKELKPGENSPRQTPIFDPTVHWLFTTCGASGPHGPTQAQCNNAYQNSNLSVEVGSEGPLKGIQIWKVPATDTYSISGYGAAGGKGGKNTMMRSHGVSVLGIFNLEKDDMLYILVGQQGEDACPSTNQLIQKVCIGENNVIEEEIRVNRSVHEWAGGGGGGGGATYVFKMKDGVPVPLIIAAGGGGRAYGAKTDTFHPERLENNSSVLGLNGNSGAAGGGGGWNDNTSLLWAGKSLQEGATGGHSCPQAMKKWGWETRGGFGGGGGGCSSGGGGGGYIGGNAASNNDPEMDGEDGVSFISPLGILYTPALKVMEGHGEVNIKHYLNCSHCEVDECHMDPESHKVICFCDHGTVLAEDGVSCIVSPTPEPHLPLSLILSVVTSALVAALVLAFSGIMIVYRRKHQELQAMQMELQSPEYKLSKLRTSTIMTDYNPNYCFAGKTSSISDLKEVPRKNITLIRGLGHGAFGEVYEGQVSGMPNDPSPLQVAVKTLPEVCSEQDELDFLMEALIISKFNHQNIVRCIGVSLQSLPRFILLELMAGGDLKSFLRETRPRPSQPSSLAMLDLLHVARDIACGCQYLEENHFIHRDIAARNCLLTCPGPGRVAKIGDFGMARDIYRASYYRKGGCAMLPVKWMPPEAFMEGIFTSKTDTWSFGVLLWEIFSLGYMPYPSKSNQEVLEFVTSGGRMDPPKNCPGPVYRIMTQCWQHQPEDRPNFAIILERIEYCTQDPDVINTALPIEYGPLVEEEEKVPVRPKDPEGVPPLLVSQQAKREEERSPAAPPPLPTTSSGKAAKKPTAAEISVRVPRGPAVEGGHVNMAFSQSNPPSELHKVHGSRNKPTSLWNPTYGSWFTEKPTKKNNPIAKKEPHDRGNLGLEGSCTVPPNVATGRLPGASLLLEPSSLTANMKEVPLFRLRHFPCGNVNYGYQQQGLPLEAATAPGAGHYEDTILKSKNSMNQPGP", "assay_type": "functional"}, "[13]": {"molecular_target": "Vascular endothelial growth factor receptor 3 (Homo sapiens, UniProt P35916)", "assay_type": "functional"}, "[14]": {"molecular_target": "Phosphorylase b kinase gamma catalytic chain, liver/testis isoform (Homo sapiens, UniProt P15735)", "assay_type": "functional"}, "[15]": {"molecular_target": "Serine/threonine-protein kinase Nek4 (Homo sapiens, UniProt P51957)", "sequence (P51957 whole entry)": "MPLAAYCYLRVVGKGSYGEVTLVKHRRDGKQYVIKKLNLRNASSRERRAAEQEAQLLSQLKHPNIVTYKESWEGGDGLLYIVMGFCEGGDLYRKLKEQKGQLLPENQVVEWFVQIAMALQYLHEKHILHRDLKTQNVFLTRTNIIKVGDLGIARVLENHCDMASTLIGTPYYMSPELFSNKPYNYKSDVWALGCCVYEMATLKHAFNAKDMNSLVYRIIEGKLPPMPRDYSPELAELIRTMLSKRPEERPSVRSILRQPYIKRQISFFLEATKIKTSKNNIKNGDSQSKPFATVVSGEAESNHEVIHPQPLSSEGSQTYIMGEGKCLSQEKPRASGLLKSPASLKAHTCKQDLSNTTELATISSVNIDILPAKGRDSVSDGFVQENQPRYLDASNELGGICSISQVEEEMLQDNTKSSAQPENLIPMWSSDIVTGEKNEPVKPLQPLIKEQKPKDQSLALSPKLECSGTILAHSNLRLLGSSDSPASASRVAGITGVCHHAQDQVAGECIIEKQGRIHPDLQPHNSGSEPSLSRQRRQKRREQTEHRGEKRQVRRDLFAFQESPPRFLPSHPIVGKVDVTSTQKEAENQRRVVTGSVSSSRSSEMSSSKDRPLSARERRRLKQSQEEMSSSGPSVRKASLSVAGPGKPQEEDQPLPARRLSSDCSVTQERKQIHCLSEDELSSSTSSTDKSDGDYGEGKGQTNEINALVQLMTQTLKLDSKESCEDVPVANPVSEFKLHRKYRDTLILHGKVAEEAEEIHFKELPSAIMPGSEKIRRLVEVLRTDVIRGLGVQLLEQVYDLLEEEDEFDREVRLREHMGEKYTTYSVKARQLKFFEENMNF", "assay_type": "functional"}, "[16]": {"molecular_target": "Serine/threonine-protein kinase TAO1 (Homo sapiens, UniProt Q7L7X3)", "sequence (Q7L7X3 whole entry)": "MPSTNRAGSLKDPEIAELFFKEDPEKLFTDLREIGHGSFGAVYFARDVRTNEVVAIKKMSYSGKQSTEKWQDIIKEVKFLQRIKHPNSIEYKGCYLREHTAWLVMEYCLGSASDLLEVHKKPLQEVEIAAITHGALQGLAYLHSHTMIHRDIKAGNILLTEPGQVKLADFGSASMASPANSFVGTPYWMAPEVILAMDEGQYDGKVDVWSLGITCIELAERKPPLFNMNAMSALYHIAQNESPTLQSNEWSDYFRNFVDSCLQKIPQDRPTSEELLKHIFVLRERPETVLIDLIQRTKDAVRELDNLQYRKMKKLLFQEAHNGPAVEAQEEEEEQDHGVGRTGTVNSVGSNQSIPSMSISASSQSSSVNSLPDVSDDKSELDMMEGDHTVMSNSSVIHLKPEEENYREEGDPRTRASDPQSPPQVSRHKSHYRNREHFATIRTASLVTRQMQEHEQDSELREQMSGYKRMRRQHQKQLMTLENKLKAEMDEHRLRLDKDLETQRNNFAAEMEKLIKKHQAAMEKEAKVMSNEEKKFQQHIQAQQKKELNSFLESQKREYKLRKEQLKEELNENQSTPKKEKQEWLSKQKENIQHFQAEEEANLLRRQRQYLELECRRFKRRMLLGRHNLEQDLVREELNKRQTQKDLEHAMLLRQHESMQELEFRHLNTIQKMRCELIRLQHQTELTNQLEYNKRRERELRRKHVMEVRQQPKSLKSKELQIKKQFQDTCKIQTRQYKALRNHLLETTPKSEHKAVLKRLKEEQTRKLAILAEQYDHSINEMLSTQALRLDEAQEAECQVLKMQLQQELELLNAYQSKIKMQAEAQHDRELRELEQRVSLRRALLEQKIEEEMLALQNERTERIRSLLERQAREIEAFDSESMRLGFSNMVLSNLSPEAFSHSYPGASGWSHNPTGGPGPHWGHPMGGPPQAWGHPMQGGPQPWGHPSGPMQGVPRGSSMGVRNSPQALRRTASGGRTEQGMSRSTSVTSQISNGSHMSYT", "assay_type": "functional"}, "[17]": {"molecular_target": "Serine/threonine-protein kinase Nek2 (Homo sapiens, UniProt P51955)", "sequence (P51955 whole entry)": "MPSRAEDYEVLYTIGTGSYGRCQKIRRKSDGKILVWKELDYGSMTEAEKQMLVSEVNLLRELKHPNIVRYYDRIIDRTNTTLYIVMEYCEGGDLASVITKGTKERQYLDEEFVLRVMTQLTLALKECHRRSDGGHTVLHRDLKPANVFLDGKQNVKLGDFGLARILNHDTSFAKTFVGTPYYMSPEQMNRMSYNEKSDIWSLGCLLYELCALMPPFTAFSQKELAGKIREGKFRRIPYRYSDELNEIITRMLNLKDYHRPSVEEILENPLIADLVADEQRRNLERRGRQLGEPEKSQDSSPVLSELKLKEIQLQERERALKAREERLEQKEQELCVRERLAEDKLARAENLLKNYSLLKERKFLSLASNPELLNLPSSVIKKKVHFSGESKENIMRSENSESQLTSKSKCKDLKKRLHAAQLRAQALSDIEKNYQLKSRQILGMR", "assay_type": "functional"}, "[18]": {"molecular_target": "Serine/threonine-protein kinase PLK1 (Homo sapiens, UniProt P53350)", "assay_type": "functional"}}, "note": "The source made the active and inactive calls.", "data": [{"smiles": "CCOC(=O)C(C(=O)OCC)c1cc(Br)c2noc3c2c1C(=O)c1ccccc1-3", "values": [{"measurement": "IC50", "setting": "[1]", "result": "35.5 µM (active)"}, {"measurement": "IC50", "setting": "[2]", "result": "0.3 µM (active)"}]}, {"smiles": "CS(=O)(=O)c1ccc2c(c1)SC1=NC(=O)/C(=C/c3ccc(O)c(O)c3)C(=N)N12", "values": [{"measurement": "IC50", "setting": "[3]", "result": "51.2 µM (active)"}]}, {"smiles": "C=CCNC1=C(Cl)C(=O)c2ccccc2C1=O", "values": [{"measurement": "AC50", "setting": "[4]", "result": "53.5 µM (active)"}, {"measurement": "AC50", "setting": "[5]", "result": "> 70 µM (inactive)"}]}, {"smiles": "CN(C)c1ccc(-c2nnc(-c3cccs3)o2)cc1", "values": [{"measurement": "IC50", "setting": "[6]", "result": "3.58 µM (active)"}]}, {"smiles": "COc1ccc(C(=O)Nc2n[nH]c3ccc(-c4cn(Cc5ccccc5)nn4)cc23)cc1OC", "values": [{"measurement": "Ki", "setting": "[7]", "result": "0.0158 µM (active)"}, {"measurement": "Ki", "setting": "[8]", "result": "> 3.16 µM (inactive)"}, {"measurement": "Ki", "setting": "[9]", "result": "0.158 µM (active)"}, {"measurement": "Ki", "setting": "[10]", "result": "2.51 µM (active)"}, {"measurement": "Ki", "setting": "[11]", "result": "1.26 µM (active)"}, {"measurement": "Ki", "setting": "[12]", "result": "> 6.31 µM (inactive)"}, {"measurement": "Ki", "setting": "[13]", "result": "0.2 µM (active)"}, {"measurement": "Ki", "setting": "[14]", "result": "0.316 µM (active)"}, {"measurement": "Ki", "setting": "[15]", "result": "1 µM (active)"}, {"measurement": "Ki", "setting": "[16]", "result": "5.01 µM (active)"}, {"measurement": "Ki", "setting": "[17]", "result": "6.31 µM (active)"}, {"measurement": "Ki", "setting": "[18]", "result": "> 7.94 µM (inactive)"}]}]}
